The results in this text go back to patent publication US20120077858A1, “COMPOUNDS ACT AT MULTIPLE PROSTAGLANDIN RECEPTORS GIVING A GENERAL ANTI-INFLAMMATORY RESPONSE” (ALLERGAN, INC., priority 2010, published 2012).

Several values for one entry are separate records, joined by “and”; a condition that tells them apart may be missing. Identical values can stand only once. Like-named read-outs stand apart in the source and are kept apart here.

What all share (format): cell-based
Experiment [1] addresses T1, human prostanoid IP receptor (Homo sapiens, UniProt P43119).
T1 construct: expressed in transfected cells
The experiment can be described thus: FLIPR Ca2+ signaling antagonist assay, IP receptor stable cell line. Particulars: HEK-293 EBNA stable cells, vs standard agonist Cicaprost. The protocol:
(§1) The above compounds were tested for PG antagonist activity as follows using human recombinant prostanoid receptor (DP1, EP1-4, FP, IP and TP) stable cell lines:
(§2) In order to measure the response of Gs and Gi coupled prostanoid receptors as a Ca^2+ signal, chimeric G protein cDNAs were used. Stable cell lines over-expressing human prostanoid DP1, EP1-4, FP, IP, and TP receptors were established as follows:
(§3) Briefly, human prostanoid DP1, EP2, and EP4 receptor cDNAs were co-transfected with chimeric Gqs cDNA containing a haemagglutanin (HA) epitope; human prostanoid EP3 receptors were co-transfected with chimeric Gqi-HA; human EP1, FP, IP, and TP receptor cDNAs were expressed with no exogenous G-proteins. Gqs and Gqi chimeric cDNAs (Molecular Devices, Sunnyvale, Calif., U.S.A.), as well as cDNAs of prostanoid receptors, were cloned into a pCEP4 vector with a hygromycin B selection marker. Transfection into HEK-293 EBNA (Epstein-Barr virus nuclear antigen) cells was achieved by the FuGENE 6 transfection Reagent (Roche Applied Science, Indianapolis, Ind., USA). Stable transfectants were selected according to hygromycin resistance. Because Gqs and Gqi contained an HA epitope, G-protein expression was detected by Western blotting analysis using anti-mouse HA monoclonal antibody and horseradish peroxidase (HRP)-conjugated secondary antibody, while functional expression of prostanoid receptors was detected by FLIPR screening. These stable cell lines were validated using previously published antagonists at 10 μM against serial dilutions of standard agonists by FLIPR functional assays for Ca^2+ Signaling (as described below).
(§4) Ca^2+ signaling studies were performed using a FLIPR TETRA system (Molecular Devices, Sunnyvale, Calif., USA) in the 384-format. This is a high-throughput instrument for cell-based assays to monitor Ca^2+ signaling associated with GPCRs and ion channels. Cells were seeded at a density of 5×10^4 cells/well in BioCoat poly-D-lysine coated, black wall, clear bottom 384-well plates (BD Biosciences, Franklin lakes, NJ, USA) and allowed to attach overnight in an incubator at 37° C. […]
(§5) After 4.5 minutes, a 7-point serial dilution of the standard agonist for the corresponding receptor, in a 25 μl volume was injected at the final concentrations from 10^−11M to 10^−5M 10-fold serial dilution increments for cells expressing human recombinant DP1, EP1, EP2, EP3, EP4, FP, and IP receptors. […] Cells were excited with LED (light emitting diode) excitation at 470-495 nm and emission was measured through an emission filter at 515-575 nm. Assay plates were read for 3.5 minutes using the FLIPR^TETRA. The peak increase in fluorescence intensity was recorded for each well. […]

Experiment [2] concerns the target T2, human prostanoid EP3 receptor (Homo sapiens, UniProt P43115).
T2 construct: expressed in transfected cells
T2 sequence (P43115 1-390): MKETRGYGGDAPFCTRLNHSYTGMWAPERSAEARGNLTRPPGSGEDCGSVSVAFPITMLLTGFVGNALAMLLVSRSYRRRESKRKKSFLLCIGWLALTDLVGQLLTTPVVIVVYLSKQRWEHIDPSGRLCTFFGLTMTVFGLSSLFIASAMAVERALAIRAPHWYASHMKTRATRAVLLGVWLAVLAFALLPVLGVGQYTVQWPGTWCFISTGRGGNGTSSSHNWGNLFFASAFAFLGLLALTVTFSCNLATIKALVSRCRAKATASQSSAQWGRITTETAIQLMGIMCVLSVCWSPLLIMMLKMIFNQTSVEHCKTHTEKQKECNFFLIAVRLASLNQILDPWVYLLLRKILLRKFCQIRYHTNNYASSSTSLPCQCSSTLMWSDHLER
The experiment can be described thus: FLIPR Ca2+ signaling antagonist assay, EP3 receptor stable cell line. Particulars: chimeric Gqi, vs standard agonist PGE2. The protocol: as §1, §2, §3, §4, §5

Experiment [3] deals with T3, human prostanoid EP4 receptor (Homo sapiens, UniProt P35408).
T3 construct: expressed in transfected cells
The experiment can be described thus: FLIPR Ca2+ signaling antagonist assay, EP4 receptor stable cell line. Particulars: chimeric Gqs, vs standard agonist PGE2. The protocol: as §1, §2, §3, §4, §5

Experiment [4] concerns the target T4, human prostanoid EP2 receptor (Homo sapiens, UniProt P43116).
T4 construct: expressed in transfected cells
Description: FLIPR Ca2+ signaling antagonist assay, EP2 receptor stable cell line. Particulars: chimeric Gqs, vs standard agonist PGE2. The protocol: as §1, §2, §3, §4, §5

Experiment [5] addresses T5, human prostanoid TP receptor (Homo sapiens, UniProt P21731).
T5 construct: expressed in transfected cells
T5 sequence (P21731 1-343): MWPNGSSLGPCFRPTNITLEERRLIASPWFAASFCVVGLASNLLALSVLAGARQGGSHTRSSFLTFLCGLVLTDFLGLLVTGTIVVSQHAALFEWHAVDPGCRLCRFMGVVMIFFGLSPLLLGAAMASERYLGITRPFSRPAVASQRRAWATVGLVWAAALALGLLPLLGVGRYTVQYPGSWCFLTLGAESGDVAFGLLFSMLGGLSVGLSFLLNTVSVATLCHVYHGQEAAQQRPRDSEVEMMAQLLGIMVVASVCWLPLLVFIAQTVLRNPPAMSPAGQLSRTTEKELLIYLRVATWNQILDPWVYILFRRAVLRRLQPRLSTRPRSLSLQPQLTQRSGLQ
Description: FLIPR Ca2+ signaling antagonist assay, TP receptor stable cell line. The protocol: as §1, §2
as §3, with “These stable cell lines were validated using previously published antagonists at 10 μM against serial dilutions of standard agonists by FLIPR functional assays for Ca^2+ Signaling (as described below).” left out
as §5

Experiment [6] deals with T6, human prostanoid EP1 receptor (Homo sapiens, UniProt P34995).
T6 construct: expressed in transfected cells
T6 sequence (P34995 1-402): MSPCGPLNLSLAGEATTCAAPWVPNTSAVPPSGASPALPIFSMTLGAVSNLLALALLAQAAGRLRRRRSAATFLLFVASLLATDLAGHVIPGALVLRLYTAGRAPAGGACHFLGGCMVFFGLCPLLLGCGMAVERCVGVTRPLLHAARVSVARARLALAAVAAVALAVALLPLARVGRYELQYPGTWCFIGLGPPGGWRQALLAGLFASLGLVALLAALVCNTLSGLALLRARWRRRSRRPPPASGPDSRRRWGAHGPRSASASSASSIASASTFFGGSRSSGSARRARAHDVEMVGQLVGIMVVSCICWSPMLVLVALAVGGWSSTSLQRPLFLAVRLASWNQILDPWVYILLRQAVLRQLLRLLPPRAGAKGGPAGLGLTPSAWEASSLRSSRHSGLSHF
Description: FLIPR Ca2+ signaling antagonist assay, EP1 receptor stable cell line. The following applies: vs standard agonist PGE2. The protocol: as §1, §2, §3, §4, §5

The target of experiment [7] is T7, human prostanoid FP receptor (Homo sapiens, UniProt P43088).
T7 construct: expressed in transfected cells
Description: FLIPR Ca2+ signaling antagonist assay, FP receptor stable cell line. The following applies: HEK-293 EBNA stable cells, vs standard agonist 17-phenyl-PGF2α. The protocol:
as §1, §2, §3, §4, §5

For experiment [8], the target named is T8, human prostanoid DP1 receptor (Homo sapiens, UniProt Q13258).
T8 construct: expressed in transfected cells
T8 sequence (Q13258 1-359): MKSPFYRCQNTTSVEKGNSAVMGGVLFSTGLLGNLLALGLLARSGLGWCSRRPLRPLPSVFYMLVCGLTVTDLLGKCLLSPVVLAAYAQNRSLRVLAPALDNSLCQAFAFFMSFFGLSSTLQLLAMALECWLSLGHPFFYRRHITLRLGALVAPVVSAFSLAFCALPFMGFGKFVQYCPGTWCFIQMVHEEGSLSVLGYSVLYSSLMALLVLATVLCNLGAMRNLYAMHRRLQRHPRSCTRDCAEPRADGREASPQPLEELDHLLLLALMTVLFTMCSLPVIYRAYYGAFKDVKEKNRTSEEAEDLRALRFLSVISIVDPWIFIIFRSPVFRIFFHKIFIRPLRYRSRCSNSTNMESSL
The experiment can be described thus: FLIPR Ca2+ signaling antagonist assay, DP1 receptor stable cell line. The protocol:
as §1, §2
Briefly, human prostanoid DP1, EP2, and EP4 receptor cDNAs were co-transfected with chimeric Gqs cDNA containing a haemagglutanin (HA) epitope; human prostanoid EP3 receptors were co-transfected with chimeric Gqi-HA; human EP1, FP, IP, and TP receptor cDNAs were expressed with no exogenous G-proteins. […] Because Gqs and Gqi contained an HA epitope, G-protein expression was detected by Western blotting analysis using anti-mouse HA monoclonal antibody and horseradish peroxidase (HRP)-conjugated secondary antibody, while functional expression of prostanoid receptors was detected by FLIPR screening. […]
After 4.5 minutes, a 7-point serial dilution of the standard agonist for the corresponding receptor, in a 25 μl volume was injected at the final concentrations from 10^−11M to 10^−5M 10-fold serial dilution increments for cells expressing human recombinant DP1, EP1, EP2, EP3, EP4, FP, and IP receptors. […] Assay plates were read for 3.5 minutes using the FLIPR^TETRA. […]

[9] abbreviates: read-out: EC50 (nM) on Prostanoid Receptor Functional Activity Measured by FLIPR.
Setting [10] is: HEK-293 EBNA stable cells, read-out: EC50 (nM) on Prostanoid Receptor Functional Activity Measured by FLIPR, (FLIPR) Kb (nM): EP3.
Where [11] appears, read: HEK-293 EBNA stable cells, read-out: EC50 (nM) on Prostanoid Receptor Functional Activity Measured by FLIPR, (FLIPR) Kb (nM): EP4.
The mark [12] stands for this setting: HEK-293 EBNA stable cells, read-out: EC50 (nM) on Prostanoid Receptor Functional Activity Measured by FLIPR, (FLIPR) Kb (nM): EP2.
The mark [13] stands for this setting: HEK-293 EBNA stable cells, vs standard agonist U-46619, read-out: EC50 (nM) on Prostanoid Receptor Functional Activity Measured by FLIPR, (FLIPR) Kb (nM): TP.
Setting [14] is: HEK-293 EBNA stable cells, read-out: EC50 (nM) on Prostanoid Receptor Functional Activity Measured by FLIPR, (FLIPR) Kb (nM): EP1.
The mark [15] stands for this setting: EC50 (nM) on Prostanoid Receptor Functional Activity Measured by FLIPR.

T3 sequence (P35408 whole entry): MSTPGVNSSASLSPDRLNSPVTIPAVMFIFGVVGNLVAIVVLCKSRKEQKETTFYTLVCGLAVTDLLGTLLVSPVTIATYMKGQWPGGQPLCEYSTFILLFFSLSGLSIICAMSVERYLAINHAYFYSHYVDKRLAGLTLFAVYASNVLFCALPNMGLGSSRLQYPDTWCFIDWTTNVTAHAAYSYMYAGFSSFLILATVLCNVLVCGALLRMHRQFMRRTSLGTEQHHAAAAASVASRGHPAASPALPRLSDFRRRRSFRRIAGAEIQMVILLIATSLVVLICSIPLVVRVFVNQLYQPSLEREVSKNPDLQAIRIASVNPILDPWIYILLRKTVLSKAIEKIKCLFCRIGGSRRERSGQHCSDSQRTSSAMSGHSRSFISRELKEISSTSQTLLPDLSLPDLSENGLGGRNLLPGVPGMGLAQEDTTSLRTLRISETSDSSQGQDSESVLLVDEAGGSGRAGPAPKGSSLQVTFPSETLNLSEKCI
T1 sequence (P43119 whole entry): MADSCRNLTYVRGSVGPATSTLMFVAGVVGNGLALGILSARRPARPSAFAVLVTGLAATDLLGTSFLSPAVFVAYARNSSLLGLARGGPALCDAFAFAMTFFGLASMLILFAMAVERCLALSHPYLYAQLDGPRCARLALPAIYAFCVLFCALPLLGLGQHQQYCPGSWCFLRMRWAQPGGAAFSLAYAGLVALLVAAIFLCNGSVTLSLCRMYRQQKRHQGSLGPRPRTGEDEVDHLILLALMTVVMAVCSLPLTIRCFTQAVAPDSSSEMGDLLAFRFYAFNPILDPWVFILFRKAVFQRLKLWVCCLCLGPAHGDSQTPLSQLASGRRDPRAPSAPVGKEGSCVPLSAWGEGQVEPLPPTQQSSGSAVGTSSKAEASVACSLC
T7 sequence (P43088 whole entry): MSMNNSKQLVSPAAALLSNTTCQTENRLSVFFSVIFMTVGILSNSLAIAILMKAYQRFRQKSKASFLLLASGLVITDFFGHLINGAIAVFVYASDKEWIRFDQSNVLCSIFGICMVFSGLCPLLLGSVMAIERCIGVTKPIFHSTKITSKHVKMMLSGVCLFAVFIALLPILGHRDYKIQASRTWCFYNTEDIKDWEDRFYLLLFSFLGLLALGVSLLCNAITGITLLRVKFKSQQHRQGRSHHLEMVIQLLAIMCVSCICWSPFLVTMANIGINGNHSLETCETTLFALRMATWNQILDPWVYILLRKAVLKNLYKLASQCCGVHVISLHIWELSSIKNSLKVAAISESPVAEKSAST
T4 sequence (P43116 whole entry): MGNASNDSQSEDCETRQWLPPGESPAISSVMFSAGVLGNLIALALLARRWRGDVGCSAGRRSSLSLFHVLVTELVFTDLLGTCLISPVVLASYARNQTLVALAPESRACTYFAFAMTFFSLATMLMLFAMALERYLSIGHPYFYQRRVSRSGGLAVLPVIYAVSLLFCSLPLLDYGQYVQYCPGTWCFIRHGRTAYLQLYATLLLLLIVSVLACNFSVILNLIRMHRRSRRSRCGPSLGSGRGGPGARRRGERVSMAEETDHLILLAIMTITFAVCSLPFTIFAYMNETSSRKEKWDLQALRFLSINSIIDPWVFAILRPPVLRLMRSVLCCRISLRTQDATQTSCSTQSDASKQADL

For the molecule `O=C(CCc1ccc(F)cc1CN1CCC[C@H]1c1nc(C(=O)NCCCCC2CCCCC2)co1)NS(=O)(=O)C(F)(F)F` [Example 12a], the Kb in experiment [1] (setting [9]) is 550 nM and 860 nM; in experiment [2] (setting [10]), 82 nM and 47 nM; in experiment [3] (setting [11]), 38 nM and 10 nM; in experiment [4] (setting [12]) it was 6400 nM and 830 nM; in experiment [5] (setting [13]), below 1 nM; in experiment [6] (setting [14]), 47 nM and 20 nM. In experiment [7] (setting [9]), the Kb was 350 nM and 270 nM.

Turning to `O=C(CCc1ccc(Cl)cc1CN1CCC[C@H]1c1nc(C(=O)NCCCCC2CCCCC2)co1)NS(=O)(=O)C(F)(F)F` [Example 12b, (S)—N-(4-cyclohexylbutyl)-2-(1-(5-chloro-2-(3-oxo-3-(trifluoromethylsulfonamido)propyl)benzyl)pyrrolidin-2-yl)oxazole-4-carboxamide], the Kb came to 9500 nM in experiment [1] (setting [9]); 100 nM in experiment [2] (setting [10]); 37 nM in experiment [3] (setting [11]); 5500 nM in experiment [4] (setting [12]); 70 nM in experiment [6] (setting [14]); 460 nM in experiment [7] (setting [9]).

Take `O=C(CCc1cc2c(cc1CN1CCCC1c1nc(C(=O)NCCCCC3CCCCC3)co1)OCO2)NS(=O)(=O)C(F)(F)F` (centres unmarked) [Example 12d]: the Kb in experiment [1] (setting [9]) was determined as 1000 nM; in experiment [2] (setting [10]), 150 nM; in experiment [3] (setting [11]), 7 nM; in experiment [4] (setting [12]), 3900 nM; in experiment [5] (setting [13]), 0.3 nM; in experiment [8] (HEK-293 EBNA stable cells, chimeric Gqs, vs standard agonist BW 245C, read-out: EC50 (nM) on Prostanoid Receptor Functional Activity Measured by FLIPR, (FLIPR) Kb (nM): DP), 3 nM. Besides, the Kb in experiment [6] (setting [14]) stood at 63 nM; in experiment [7] (setting [9]) it was 360 nM.

Turning to `CCCCCCCCNC(=O)c1coc(C2CCCN2Cc2cc(F)ccc2CCC(=O)NS(=O)(=O)C(F)(F)F)n1` (centres unmarked) [Example 12e, 2-{1-[5-fluoro-2-(3-oxo-3-{[(trifluoromethyl)sulfonyl]amino}propyl)benzyl]pyrrolidin-2-yl}-N-octyl-1,3-oxazole-4-carboxamide], the Kb was 290 nM in experiment [1] (setting [15]); 110 nM in experiment [2] (EC50 (nM) on Prostanoid Receptor Functional Activity Measured by FLIPR, (FLIPR) Kb (nM): EP3, HEK-293 EBNA stable cells); 19 nM in experiment [3] (EC50 (nM) on Prostanoid Receptor Functional Activity Measured by FLIPR, (FLIPR) Kb (nM): EP4, HEK-293 EBNA stable cells); 2500 nM in experiment [4] (EC50 (nM) on Prostanoid Receptor Functional Activity Measured by FLIPR, (FLIPR) Kb (nM): EP2, HEK-293 EBNA stable cells); above 1 nM in experiment [5]; 18 nM in experiment [8]. For the same molecule, the Kb was found to be 20 nM in experiment [6] (EC50 (nM) on Prostanoid Receptor Functional Activity Measured by FLIPR, (FLIPR) Kb (nM): EP1, HEK-293 EBNA stable cells) and 270 nM in experiment [7] (setting [15]).
